{"source": "patent EP3797769A1", "about": "“COMPOSITION FOR THERAPEUTIC USE” (Fontès, M. Michel, priority 2019, dated 2021)", "system": "fibroblastes d'un patient souffrant de CMTX", "test": "Abnormal cell nuclei (DAPI staining, Mitocheck classification) in fibroblasts of a CMTX patient", "format": "cell-based, humain", "conditions": "fibroblasts of the CMTX1 patient treated with clémastine at 10µmole; untreated patient cells about 30%, healthy individual less than 1% (Figure 1)", "excerpt": "Les anomalies des noyaux cellulaires sont étudiées en déposant les fiboblastes sur des lames de microscopie et en colorant les noyaux à de l'aide 4',6-diamidino-2-phénylindole, ou DAPI, les rendant ainsi fluorescents. Les anomalies nucléaires sont classées selon la classification établie par le Mitocheck, à savoir : i) les noyaux mal formés, ii) les noyaux polylobés, iii) les noyaux non séparés et iv) les autres."}
{"compound": "CN1CCC[C@@H]1CCO[C@](C)(c1ccccc1)c1ccc(Cl)cc1", "note": "[clémastine]", "values": [{"measurement": "pourcentage des noyaux anormaux", "value": "~5", "unit": "%"}]}
